Measurements: patent US9227971B2, “Pyrazolo[1,5-a]pyrimidine compounds as mTOR inhibitors” (Merck Sharp & Dohme Corp., priority 2010, dated 2016)
Like-named read-outs stand apart in the source and are kept apart here.

Legend:
[1] = test system: phosphorylated AKT Ser473 (pAKT S473), mTORC2 activity, PC3 cells; assay: mTOR target engagement assay, immunofluorescent cell-based, pAKT S473 readout (mTORC2 activity)
Procedure, shortened: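 After blocking, cells were stained overnight at 4 °C with anti-pAKT S473 antibody, then a fluorescent secondary; inhibition was read as reduced fluorescence intensity.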

[2] = test system: phosphorylated 4E-BP1 Thr37/46 (p4E-BP1 Thr37/46), mTORC1 activity, PC3 cells; assay: mTOR target engagement assay, immunofluorescent cell-based, p4E-BP1 Thr37/46 readout (mTORC1 activity); settings: read-out: p4E-BP1 Thr37/46 IC50
Procedure, shortened: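 Seed PC3 cells overnight; treat with compound dilutions for ninety minutes at 37° C; fix with glyoxal and block; stain with anti-p4E-BP1 Thr37/46 overnight at 4° C, then fluorescent secondary; read fluorescence and fit IC50 against DMSO-only controls.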

[3] = Homo sapiens, PC-3, Table 3-1, PC3 cells
[4] = Homo sapiens, PC-3, PC3 cells, compound treatment ninety minutes at 37° C.

SMILES	IC50 ([1]; Homo sapiens, PC-3, PC3 cells)	IC50 ([2]; Homo sapiens, PC-3, PC3 cells)	IC50 [1, 3]	IC50 [2, 3]	other results
Nc1c(C2CC2)c([C@@H]2C[C@H]3CC[C@@H](C2)N3C(=O)CO)nc2c(-c3ccc(C4(O)CCC4)nc3)cnn12 [Compound 7.72, 1-((1R,3s,5S)-3-(7-amino-6-cyclopropyl-3-(6-(1-hydroxycyclobutyl)pyridin-3-yl)pyrazolo[1,5-a]pyrimidin-5-yl)-8-azabicyclo[3.2.1]octan-8-yl)-2-hydroxyethanone]	100 to 1000 nM	100 to 1000 nM			
Cc1cnc(-c2ccc(-c3cnn4c(N)c(S(C)(=O)=O)c([C@@H]5C[C@H]6CC[C@@H](C5)N6C(=O)CO)nc34)cn2)s1 [Compound 3.185, 1-((1R,3a,5S)-3-(7-amino-6-(methylsulfonyl)-3-(6-(5-methylthiazol-2-yl)pyridin-3-yl)pyrazolo[1,5-a]pyrimidin-5-yl)-8-azabicyclo[3.2.1]octan-8-yl)-2-hydroxyethanone]			100 to 1000 nM	100 to 1000 nM	
CS(=O)(=O)c1c([C@@H]2C[C@H]3CC[C@@H](C2)N3C(=O)CO)nc2c(-c3ccc(-c4ccc(F)cc4F)nc3)cnn2c1N [Compound 3.128, 1-((1R,3s,5S)-3-(7-amino-3-(6-(2,4-difluorophenyl)pyridin-3-yl)-6-(methylsulfonyl)pyrazolo[1,5-a]pyrimidin-5-yl)-8-azabicyclo[3.2.1]octan-8-yl)-2-hydroxyethanone]			100 to 1000 nM	100 to 1000 nM	
CS(=O)(=O)c1c([C@@H]2C[C@H]3CC[C@@H](C2)N3C(=O)CO)nc2c(-c3ccc(C(O)C(F)(F)F)nc3)cnn2c1N (stereo partly drawn) [Compound 7.70, 1-((1R,3s,5S)-3-(7-amino-6-(methylsulfonyl)-3-(6-(2,2,2-trifluoro-1-hydroxyethyl)pyridin-3-yl)pyrazolo[1,5-a]pyrimidin-5-yl)-8-azabicyclo[3.2.1]octan-8-yl)-2-hydroxyethanone]	1000 to 10000 nM	1000 to 10000 nM			
CC(=O)c1c([C@@H]2C[C@H]3CC[C@@H](C2)N3C(=O)c2nnc(C)[nH]2)nc2c(-c3ccc(C(C)(C)O)nc3)cnn2c1N [Compound 7.9, 1-(7-amino-3-(6-(2-hydroxypropan-2-yl)pyridin-3-yl)-5-((1R,3s,5S)-8-(5-methyl-4H-1,2,4-triazole-3-carbonyl)-8-azabicyclo[3.2.1]octan-3-yl)pyrazolo[1,5-a]pyrimidin-6-yl)ethanone]					IC50 [1, 4]: 100 to 1000 nM; IC50 [2, 4]: 100 to 1000 nM
CC(=O)c1c([C@@H]2C[C@H]3CC[C@@H](C2)N3C(=O)c2nnc[nH]2)nc2c(-c3ccc(-c4nnn(C)n4)nc3)cnn2c1N [Compound 1.1.63, 1-(5-((1R,3s,5S)-8-(4H-1,2,4-triazole-3-carbonyl)-8-azabicyclo[3.2.1]octan-3-yl)-7-amino-3-(6-(2-methyl-2H-tetrazol-5-yl)pyridin-3-yl)pyrazolo[1,5-a]pyrimidin-6-yl)ethanone]					IC50 [1, 4]: 1 to 100 nM; IC50 [2, 4]: 1 to 100 nM
CS(=O)(=O)c1c([C@@H]2C[C@H]3CC[C@@H](C2)N3C(=O)c2ccnc(N)n2)nc2c(-c3ccc(-c4ccccc4)nc3)cnn2c1N [Compound 3.143, ((1R,3s,5S)-3-(7-amino-6-(methylsulfonyl)-3-(6-phenylpyridin-3-yl)pyrazolo[1,5-a]pyrimidin-5-yl)-8-azabicyclo[3.2.1]octan-8-yl)(2-aminopyrimidin-4-yl)methanone]			100 to 1000 nM	100 to 1000 nM	
CC(=O)c1c([C@@H]2C[C@H]3CC[C@@H](C2)N3C(=O)c2ccn[nH]2)nc2c(-c3ccc(-n4cc(C)cn4)nc3)cnn2c1N [Compound 1.1.131, 1-(5-((1R,3s,5S)-8-(1H-pyrazole-5-carbonyl)-8-azabicyclo[3.2.1]octan-3-yl)-7-amino-3-(6-(4-methyl-1H-pyrazol-1-yl)pyridin-3-yl)pyrazolo[1,5-a]pyrimidin-6-yl)ethanone]					IC50 [1, 4]: 100 to 1000 nM; IC50 [2, 4]: 100 to 1000 nM
CS(=O)(=O)c1c([C@H]2CC3CC[C@H](C2)N3C(=O)c2cc[nH]n2)nc2c(-c3ccc(C(O)C(F)(F)F)nc3)cnn2c1N (stereo partly drawn) [Compound 7.69, ((1R,3s,5S)-3-(7-amino-6-(methylsulfonyl)-3-(6-(2,2,2-trifluoro-1-hydroxyethyl)pyridin-3-yl)pyrazolo[1,5-a]pyrimidin-5-yl)-8-azabicyclo[3.2.1]octan-8-yl)(1H-pyrazol-3-yl)methanone]	1000 to 10000 nM	1000 to 10000 nM			
COc1nnc(C(=O)N2C3CCC2CC(c2nc4c(-c5ccc(-c6ccccc6)nc5)cnn4c(N)c2C2CC2)C3)[nH]1 [Compound 8.103, ((1R,3s,5S)-3-(7-amino-6-cyclopropyl-3-(6-phenylpyridin-3-yl)pyrazolo[1,5-a]pyrimidin-5-yl)-8-azabicyclo[3.2.1]octan-8-yl)(5-methoxy-4H-1,2,4-triazol-3-yl)methanone]	100 to 1000 nM	100 to 1000 nM			
CC(=O)c1c([C@@H]2C[C@H]3CC[C@@H](C2)N3C(=O)CO)nc2c(-c3ccc(-c4ccccc4F)nc3)cnn2c1N [Compound 1.1.172, 1-((1R,3s,5S)-3-(6-acetyl-7-amino-3-(6-(2-fluorophenyl)pyridin-3-yl)pyrazolo[1,5-a]pyrimidin-5-yl)-8-azabicyclo[3.2.1]octan-8-yl)-2-hydroxyethanone]					IC50 [1, 4]: 1 to 100 nM; IC50 [2, 4]: 1 to 100 nM
COc1ccc(-c2ccc(-c3cnn4c(N)c(S(C)(=O)=O)c([C@@H]5C[C@H]6CC[C@@H](C5)N6C(=O)c5nnc(C)[nH]5)nc34)cn2)cc1 [Compound 3.34, ((1R,3s,5S)-3-(7-amino-3-(6-(4-methoxyphenyl)pyridin-3-yl)-6-(methylsulfonyl)pyrazolo[1,5-a]pyrimidin-5-yl)-8-azabicyclo[3.2.1]octan-8-yl)(5-methyl-4H-1,2,4-triazol-3-yl)methanone]			1 to 100 nM	1 to 100 nM	
Cn1cc2cc(-c3ccc(-c4cnn5c(N)c(S(C)(=O)=O)c([C@@H]6C[C@H]7CC[C@@H](C6)N7C(=O)c6nnc[nH]6)nc45)cn3)ccc2n1 [Compound 3.57, ((1R,3s,5S)-3-(7-amino-3-(6-(2-methyl-2H-indazol-5-yl)pyridin-3-yl)-6-(methylsulfonyl)pyrazolo[1,5-a]pyrimidin-5-yl)-8-azabicyclo[3.2.1]octan-8-yl)(4H-1,2,4-triazol-3-yl)methanone]					IC50 ([1]; Table 3-1, PC3 cells): 1 to 100 nM; IC50 ([2]; Table 3-1, PC3 cells): 1 to 100 nM
CC(=O)c1c([C@@H]2C[C@H]3CC[C@@H](C2)N3C#N)nc2c(-c3ccc(-c4ccccc4)nc3)cnn2c1N [Compound 8.71, (1R,3s,5S)-3-(6-acetyl-7-amino-3-(6-phenylpyridin-3-yl)pyrazolo[1,5-a]pyrimidin-5-yl)-8-azabicyclo[3.2.1]octane-8-carbonitrile]	100 to 1000 nM	100 to 1000 nM			
Nc1c(C2CC2)c([C@@H]2C[C@H]3CC[C@@H](C2)N3C(=O)c2nnc[nH]2)nc2c(C#Cc3cccnc3)cnn12 [Compound 8.62, ((1R,3s,5S)-3-(7-amino-6-cyclopropyl-3-(pyridin-3-ylethynyl)pyrazolo[1,5-a]pyrimidin-5-yl)-8-azabicyclo[3.2.1]octan-8-yl)(4H-1,2,4-triazol-3-yl)methanone]	1000 to 10000 nM	1000 to 10000 nM			
CS(=O)(=O)c1c([C@@H]2C[C@H]3CC[C@@H](C2)N3C(=O)c2cc(N)n[nH]2)nc2c(-c3ccc(-c4ccccc4)nc3)cnn2c1N [Compound 3.75, (3-amino-1H-pyrazol-5-yl)((1R,3s,5S)-3-(7-amino-6-(methylsulfonyl)-3-(6-phenylpyridin-3-yl)pyrazolo[1,5-a]pyrimidin-5-yl)-8-azabicyclo[3.2.1]octan-8-yl)methanone]			1 to 100 nM	1 to 100 nM	
